Data on four molecules can be found in PMC12118671, “Increased imaging ligand hydrophilicity and improved pharmacokinetic properties provides enhanced in vivo targeting of fibroblast activation protein” (npj Imaging, 2024).

Where “and” joins values, the source holds several entries; their conditions need not be identical. Identical values can stand only once.

The target of series [1] is T1, cell surface FAP (HEK293-hFAP cells) (Homo sapiens, UniProt Q12884).
T1 construct: expressed in transfected cells; host or cells: HEK293 (ATCC, CRL-1573), Lipofectamine 3000 transfection, puromycin selection
T1 sequence (Q12884 1-760): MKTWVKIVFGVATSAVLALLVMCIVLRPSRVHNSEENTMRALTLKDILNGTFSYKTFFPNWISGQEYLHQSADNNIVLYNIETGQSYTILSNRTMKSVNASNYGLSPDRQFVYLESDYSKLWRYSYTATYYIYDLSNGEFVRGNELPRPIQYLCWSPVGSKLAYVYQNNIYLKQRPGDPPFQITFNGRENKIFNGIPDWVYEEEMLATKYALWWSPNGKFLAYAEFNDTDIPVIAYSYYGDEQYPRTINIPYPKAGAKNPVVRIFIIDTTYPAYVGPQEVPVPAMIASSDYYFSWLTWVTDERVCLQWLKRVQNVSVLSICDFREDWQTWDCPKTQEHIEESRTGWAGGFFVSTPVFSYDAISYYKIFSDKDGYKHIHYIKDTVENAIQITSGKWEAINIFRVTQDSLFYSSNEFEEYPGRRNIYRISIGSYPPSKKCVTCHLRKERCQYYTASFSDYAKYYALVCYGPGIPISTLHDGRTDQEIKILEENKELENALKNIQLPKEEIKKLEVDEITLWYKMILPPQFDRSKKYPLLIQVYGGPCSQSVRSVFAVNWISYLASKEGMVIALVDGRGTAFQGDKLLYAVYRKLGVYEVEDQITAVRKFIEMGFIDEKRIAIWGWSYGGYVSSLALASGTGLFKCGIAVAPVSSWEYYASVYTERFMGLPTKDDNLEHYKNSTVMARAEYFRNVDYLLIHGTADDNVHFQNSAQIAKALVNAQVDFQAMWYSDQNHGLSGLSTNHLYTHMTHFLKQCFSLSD
The series can be described thus: Competition assay against FAPI-ALB-AF647 for indirect KD. Format: binding. The following applies: competition with FAPI-ALB-AF647, 60 nM each, 30 min on ice, read-out: KD (nM), indirectly calculated. How it is done:
Both the FAPI-ALB-AF647 and the unlabeled competitor were incubated at 60 nM each on HEK293-hFAP cells for 30 min on ice to approach steady-state binding. The competition assay cells were pelleted and washed twice with PBS w/ 0.1% BSA before being analyzed using a BD Fortessa flow cytometer. The loss in signal from the competition incubation was then compared to the signal of the FAPI-ALB-AF647 incubation alone to determine the relative binding affinity.

Series [2] is described as follows: Plasma pharmacokinetics after IV bolus, non-compartmental analysis. Format: in vivo, mouse. The following applies: for AUC(0-inf) / C0 / clearance / half-life / Vd: mouse, plasma, healthy male DBA1/J mice, Mean ± SEM; for AUC(0-inf) / C0: IV bolus 2 nmol (FAPI dosed 51 nmol, dose normalized to 2 nmol); for clearance / half-life / Vd: IV bolus; for half-life: read-out: Terminal t1/2 (converted); for Vd: read-out: VD,ss; for clearance category (Fig. 1): words in Fig. 1. As for the experimental part: FAPI was dosed IV (51 nmol) via the tail vein to maintain concentrations above LLOQ for PK analysis while all other FAPI conjugates were dosed IV (1 or 2 nmol in 150 µL PBS) via the tail vein. […] Whole blood was diluted with 10 mM EDTA in PBS and spun down to isolate plasma. Fluorescent ligand concentrations were quantified using a LI-COR Odyssey CLx scanner (Lincoln, NE) using a dilution series of fluorescent standards as previously reported. Non-compartmental analysis was conducted using the concentration vs. time profiles for each probe with MATLAB. The predicted initial concentration, terminal phase half-life, exposure (AUC0-inf), AUC extrapolation percentage, volume of distribution at steady state, and terminal clearance were reported for each dosed probe.

Series [3] has as its target T2, FAP (Mus musculus, UniProt P97321).
T2 construct: Increased FAP expression with increasing disease severity in CIA mice as assessed with IHC; from tissue; host or cells: inflamed paws of live DBA/1J mice with collagen-induced arthritis
T2 sequence (P97321 1-761): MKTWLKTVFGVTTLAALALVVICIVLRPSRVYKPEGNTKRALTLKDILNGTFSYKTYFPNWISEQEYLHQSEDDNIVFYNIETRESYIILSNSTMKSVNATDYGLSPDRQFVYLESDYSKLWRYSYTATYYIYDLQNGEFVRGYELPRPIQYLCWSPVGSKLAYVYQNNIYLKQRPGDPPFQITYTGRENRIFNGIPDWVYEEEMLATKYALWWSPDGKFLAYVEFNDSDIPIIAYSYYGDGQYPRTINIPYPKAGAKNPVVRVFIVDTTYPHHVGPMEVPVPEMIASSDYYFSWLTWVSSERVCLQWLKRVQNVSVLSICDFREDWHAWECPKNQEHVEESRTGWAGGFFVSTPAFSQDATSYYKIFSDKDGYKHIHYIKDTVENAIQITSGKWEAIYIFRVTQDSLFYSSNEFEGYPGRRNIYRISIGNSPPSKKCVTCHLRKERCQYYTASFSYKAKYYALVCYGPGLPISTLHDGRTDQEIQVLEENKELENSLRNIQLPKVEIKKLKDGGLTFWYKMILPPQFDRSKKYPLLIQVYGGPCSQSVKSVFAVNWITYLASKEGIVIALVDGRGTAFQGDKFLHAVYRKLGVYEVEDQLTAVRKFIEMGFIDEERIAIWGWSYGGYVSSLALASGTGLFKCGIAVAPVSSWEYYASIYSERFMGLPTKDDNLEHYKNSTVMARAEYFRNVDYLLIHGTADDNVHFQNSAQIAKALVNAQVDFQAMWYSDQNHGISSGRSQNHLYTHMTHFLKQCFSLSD
The series is described as follows: In vivo near-infrared imaging of paws with competitive blocking, CIA model.

Series [4] is described as follows: Plasma protein binding by equilibrium dialysis. It counts as in vitro ADME. The following applies: CD1 mouse plasma, 1 µM, equilibrium dialysis 4 h at 37 °C. As for the experimental part:
CD1 mouse plasma protein binding was assessed via equilibrium dialysis. Dry membranes (HT Dialysis, HTD96b) were soaked in DI water for 15 min and then in 30% ethanol for another 15 min. After washing the membranes 3 times with DI water, the membranes were placed in dialysis buffer (potassium phosphate, 50 mM, pH 7.4) until the assay began. At the beginning of the assay, the membranes were placed in the dialysis block and 100 µL of buffer was added to both sides of the membrane to maintain membrane hydration/integrity. Each compound was diluted to 1 µM using plasma and then 100 µL of this mixture was added to one side of the membrane while 100 µl of […] was placed in opposite well. The plate was then sealed and placed on an orbital shaker (150 rpm) in an incubator at 37 °C for 4 h. Afterwards, samples were taken from the donor and acceptor side of the well, vortexed, centrifuged at 3300 rpm for 15 min at 4 °C and then analyzed for compound content using LC/MS.
In general terms: In equilibrium dialysis free small molecules cross a membrane that holds back macromolecules.

A further series has as its system HEK293-hFAP cells. The series is described as follows: Receptor net internalization assay, flow cytometry with Trypan Blue quench. The following applies: endogenous and overexpressing cells together. It counts as cell-based, human. How it is done: The receptor internalization assay was adapted from a previously published method for peptides[61],[63]. Briefly, HEK293-hFAP cells were sub-cultured into 6-well plates and allowed to adhere for 12–16 h. After washing cells with media, 100 nM of FAPI-AF488 in media was added to each well. Cells were incubated at 37 °C in the continuous presence of FAPI-AF488 and allowed to internalize. At each time point, plates were chilled, wells washed twice with PBS with 0.1% BSA, and cells lifted following Accutase incubation. Lastly, cells were resuspended in PBS or a dilution of 0.4% Trypan Blue before being analyzed via flow cytometry to differentiate between internal and surface fluorescence. The surface fluorescence was determined as (unquenched MFU – quenched MFU)/ɛ, where ɛ is the quenching efficiency determined by comparing the quenched and unquenched signals of cells that had been labeled briefly on ice to prevent internalization. The internal fluorescence was then calculated as total MFU – surface MFU. Non-specific uptake of small molecules was measured using cells where FAPI-AF488 was competed out with 100-fold excess concentration of the unlabeled FAPI. The corrected internal MFU values were plotted against the surface fluorescence integral; the slope of the linear curve is the internalization rate ke[64]. The same procedure was followed for the endogenous RAFLS cells.

Series [5] deals with FAP. The arrangement: method as in PMID 29626119. The conditions noted are these: read-out: EC50 through competition assays; cited from earlier work.

The term Kd denotes the free concentration of one partner at which half of the binding sites on the other are occupied at equilibrium, for simple one-to-one binding. The AUC(0-inf) is the area under the concentration-time curve extrapolated to infinity. Higher therefore signals more exposure. In general, clearance refers to the volume of plasma or blood freed of the substance per unit of time. As usually defined, the Vd is the apparent volume that relates the amount in the body to the concentration in plasma or blood. Regarding `CC1(C)C(/C=C/C2=C(Oc3ccc(S(=O)(=O)O)cc3)C(=C/C=C3/N(CCCCS(=O)(=O)O)c4ccc(S(=O)(=O)O)cc4C3(C)C)/CCC2)=[N+](CCCCCC(=O)N2CCN(CCCOc3ccc4nccc(C(=O)NCC(=O)N5CC(F)(F)C[C@H]5C#N)c4c3)CC2)c2ccc(S(=O)(=O)O)cc21.O=C([O-])C(F)(F)F` [FAPI-800CW], the dissociation constant (Kd) in series [1] was 8 nM. In series [2], the AUC(0-inf) stood at 0.525 ± 0.025 µM·h, the C0 came out at 1250 ± 52 nM, the clearance is 0.0638 mL/min and the half-life is 60 ± 6 min. In series [2], the Vd worked out at 0.0039 ± 0.0002 L and the “clearance category (Fig. 1)” value was “Moderate clearance”. Moreover, at FAP [3] (healthy mice, 5 h, 1 nmol IV, no block), the “mean fluorescence intensity in healthy paws” value is 0.026 ± 0.007.

Consider `N#C[C@@H]1CC(F)(F)CN1C(=O)CNC(=O)c1ccnc2ccc(OCCCN3CCNCC3)cc12` [FAPI], for which, in series [4], the “% Protein Bound ± SD” value is 44.7% and 44.7 ± 3.1%. The Kd in series [1] was 6 nM. For the same molecule, the “internalization half-life (t1/2)” value with HEK293-hFAP cells is 240 to 480 min. Moreover, in series [2], the AUC(0-inf) was determined as 0.014 ± 0.004 µM·h, the C0 is 50 ± 7 nM, the clearance is 3.9 mL/min and the half-life was 30 ± 6 min. For the same molecule, in series [2], the Vd turned out to be 0.0627 ± 0.0184 L and the “clearance category (Fig. 1)” value was “Fast clearance”. At FAP [3] (CIA mice, 5 h, 50-fold molar excess), the “effect of co-dosed molar excess blocker on FAPI-800CW uptake in inflamed paws” value was “did not provide a similar reduction”.

Usually EC50 stands for the concentration giving half of the maximal effect. `N#C[C@@H]1CC(F)(F)CN1C(=O)CNC(=O)c1ccnc2ccc(OCCCN3CCN(C(=O)CN4CCN(CC(=O)O)CCN(CC(=O)O)CCN(CC(=O)O)CC4)CC3)cc12` [FAPI-04]: the EC50 with FAP [5] is 6.5 nM.

In the case of `N#CC1CC(F)(F)CN1C(=O)CNC(=O)c1ccnc2ccc(OCCCN3CCN(C(=O)C(N)CCC(=O)NCCOCCOCC(=O)NCc4ccc(S(=O)(=O)NC(=O)c5ccc(-c6ccc(C(F)(F)F)cc6)cc5)cc4)CC3)cc12` (stereo not shown) [FAPI-ALB], the “% Protein Bound ± SD” value in series [4] was 98.9 ± 0.2%. The Kd in series [1] was 3.6 nM. In series [2], the AUC(0-inf) was determined as 0.088 ± 0.018 µM·h, the C0 turned out to be 189 ± 52 nM, the clearance was 0.42 mL/min and the half-life was 54 min. Moreover, in series [2], the Vd stood at 0.0145 ± 0.0084 L and the “clearance category (Fig. 1)” value is “Moderate clearance”. For the same molecule, at FAP [3] (CIA mice, 24 h, 1 nmol IV probe, blocker co-administered at 50-fold molar excess), the “mean fluorescence intensity of FAPI-ALB-800CW in inflamed paws when blocked by this compound” value turned out to be 0.07 ± 0.01.
